Test results taken from ChEMBL document CHEMBL1201861, “Genomics of Drug Sensitity in Cancer screening data, Wellcome Trust Sanger Institute”.

Columns and labels:
[1] = system: CHP-126; assay: cells; assay type: functional, cell-based, Homo sapiens; settings: Homo sapiens, CHP-126
Description: SANGER: Inhibition of human CHP-126 cell growth in a cell viability assay.

[2] = system: U-698-M; assay: cells; assay type: functional, cell-based, Homo sapiens; settings: Homo sapiens, U-698-M
Description: SANGER: Inhibition of human U-698-M cell growth in a cell viability assay.

[3] = system: NCCIT; assay: SANGER: Inhibition of human NCCIT cell growth in a cell viability assay.; assay type: functional, cell-based; settings: Homo sapiens, NCCIT
[4] = system: NCI-H719; assay: cells; assay type: functional, cell-based, Homo sapiens; settings: Homo sapiens, NCI-H719;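 note: growth inhibition of the cultured cell line, read out with a viability assay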
Description: SANGER: Inhibition of human NCI-H719 cell growth in a cell viability assay.

[5] = system: MFE-280; assay: cells; assay type: functional, cell-based; settings: Homo sapiens;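 note: growth inhibition of MFE-280 cells, determined with a cell viability readout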
Description: SANGER: Inhibition of human MFE-280 cell growth in a cell viability assay.

[6] = system: IGR-1; assay: cells; assay type: functional, cell-based; settings: Homo sapiens;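 note: growth inhibition of human IGR-1 cells, read out with a cell viability assay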
Description: SANGER: Inhibition of human IGR-1 cell growth in a cell viability assay.

[7] = system: SIMA; assay: cells; assay type: functional, cell-based, Homo sapiens; settings: Homo sapiens, SIMA;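 note: growth inhibition of SIMA cells, measured with a cell viability readout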
Description: SANGER: Inhibition of human SIMA cell growth in a cell viability assay.

[8] = system: NB1; assay: cells; assay type: functional, cell-based, Homo sapiens; settings: Homo sapiens, NB1;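 note: reduction of NB1 cell proliferation, read out with a viability assay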
Description: SANGER: Inhibition of human NB1 cell growth in a cell viability assay.

[9] = system: PA-1; assay: cells; assay type: functional, cell-based; settings: Homo sapiens;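 note: IC50 for suppression of PA-1 cell proliferation, determined with a cell viability read-out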
Description: SANGER: Inhibition of human PA-1 cell growth in a cell viability assay.

[10] = system: MHH-CALL-2; assay: cells; assay type: functional, cell-based, Homo sapiens; settings: Homo sapiens, MHH-CALL-2;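 note: growth inhibition of the cell line, read out in a cell viability assay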
Description: SANGER: Inhibition of human MHH-CALL-2 cell growth in a cell viability assay.

[11] = system: NCI-H520; assay: cells; assay type: functional, cell-based; settings: Homo sapiens;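 note: growth inhibition of NCI-H520 cells, measured by a cell viability assay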
Description: SANGER: Inhibition of human NCI-H520 cell growth in a cell viability assay.

[12] = system: BL-70; assay: SANGER: Inhibition of human BL-70 cell growth in a cell viability assay.; assay type: functional, cell-based; settings: Homo sapiens, BL-70
[13] = system: EHEB; assay: cells; assay type: functional, cell-based; settings: Homo sapiens;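 note: growth inhibition of human EHEB cells, read out with a cell viability assay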
Description: SANGER: Inhibition of human EHEB cell growth in a cell viability assay.

[14] = system: UACC-812; assay: cells; assay type: functional, cell-based; settings: Homo sapiens
Description: SANGER: Inhibition of human UACC-812 cell growth in a cell viability assay.

[15] = system: SW1710; assay: cells; assay type: functional, cell-based; settings: Homo sapiens;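 note: growth inhibition of SW1710 cells, determined with a cell viability assay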
Description: SANGER: Inhibition of human SW1710 cell growth in a cell viability assay.

[16] = system: CAL-51; assay: cells; assay type: functional, cell-based; settings: Homo sapiens;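 note: human CAL-51 cell line, growth inhibition read out via a cell viability assay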
Description: SANGER: Inhibition of human CAL-51 cell growth in a cell viability assay.

[17] = system: KYSE-410; assay: cells; assay type: functional, cell-based; settings: Homo sapiens;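 note: growth inhibition of KYSE-410 cells, measured through a cell viability readout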
Description: SANGER: Inhibition of human KYSE-410 cell growth in a cell viability assay.

[18] = system: SW1573; assay: cells; assay type: functional, cell-based; settings: Homo sapiens;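 note: growth inhibition of SW1573 cells, read out with a cell viability assay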
Description: SANGER: Inhibition of human SW1573 cell growth in a cell viability assay.

[19] = system: MDA-MB-157; assay: cells; assay type: functional, cell-based; settings: Homo sapiens
Description: SANGER: Inhibition of human MDA-MB-157 cell growth in a cell viability assay.

[20] = system: COLO-741; assay: cells; assay type: functional, cell-based; settings: Homo sapiens
Description: SANGER: Inhibition of human COLO-741 cell growth in a cell viability assay.

[21] = system: SR; assay: cells; assay type: functional, cell-based, Homo sapiens; settings: Homo sapiens, SR
Description: SANGER: Inhibition of human SR cell growth in a cell viability assay.

[22] = system: COR-L279; assay: SANGER: Inhibition of human COR-L279 cell growth in a cell viability assay.; assay type: functional, cell-based; settings: Homo sapiens, COR-L279
[23] = system: SCC-4; assay: cells; assay type: functional, cell-based; settings: Homo sapiens;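 note: growth inhibition of human SCC-4 cells, read out as cell viability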
Description: SANGER: Inhibition of human SCC-4 cell growth in a cell viability assay.

[24] = system: CHL-1; assay: cells; assay type: functional, cell-based; settings: Homo sapiens;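 note: cell growth inhibition, read out with a cell viability assay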
Description: SANGER: Inhibition of human CHL-1 cell growth in a cell viability assay.

[25] = system: NCI-H441; assay: cells; assay type: functional, cell-based; settings: Homo sapiens;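 note: growth inhibition of NCI-H441 cells, read out with a cell viability assay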
Description: SANGER: Inhibition of human NCI-H441 cell growth in a cell viability assay.

[26] = system: SK-MES-1; assay: cells; assay type: functional, cell-based; settings: Homo sapiens;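 note: growth inhibition of human SK-MES-1 cells, read out with a cell viability assay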
Description: SANGER: Inhibition of human SK-MES-1 cell growth in a cell viability assay.

[27] = system: YKG-1; assay: cells; assay type: functional, cell-based; settings: Homo sapiens;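 note: cell growth inhibition, read out with a viability assay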
Description: SANGER: Inhibition of human YKG-1 cell growth in a cell viability assay.

[28] = system: DU-145; assay: cells; assay type: functional, cell-based; settings: Homo sapiens
Description: SANGER: Inhibition of human DU-145 cell growth in a cell viability assay.

[29] = system: PANC-03-27; assay: cells; assay type: functional, cell-based; settings: Homo sapiens
Description: SANGER: Inhibition of human PANC-03-27 cell growth in a cell viability assay.

[30] = system: CAL-39; assay: cells; assay type: functional, cell-based; settings: Homo sapiens;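 note: cell viability assay measuring growth inhibition of CAL-39 cells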
Description: SANGER: Inhibition of human CAL-39 cell growth in a cell viability assay.

[31] = system: A2058; assay: cells; assay type: functional, cell-based; settings: Homo sapiens;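 note: reduction of A2058 cell growth, read out with a viability assay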
Description: SANGER: Inhibition of human A2058 cell growth in a cell viability assay.

[32] = system: CP66-MEL; assay: cells; assay type: functional, cell-based; settings: Homo sapiens;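 note: growth inhibition of CP66-MEL cells determined in a cell viability assay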
Description: SANGER: Inhibition of human CP66-MEL cell growth in a cell viability assay.

[33] = system: BHT-101; assay: cells; assay type: functional, cell-based; settings: Homo sapiens
Description: SANGER: Inhibition of human BHT-101 cell growth in a cell viability assay.

[34] = system: HCT-15; assay: cells; assay type: functional, cell-based; settings: Homo sapiens;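 note: cell viability readout, IC50 reflecting suppression of HCT-15 cell growth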
Description: SANGER: Inhibition of human HCT-15 cell growth in a cell viability assay.

[35] = system: SNU-449; assay: cells; assay type: functional, cell-based; settings: Homo sapiens
Description: SANGER: Inhibition of human SNU-449 cell growth in a cell viability assay.

[36] = system: COLO-679; assay: cells; assay type: functional, cell-based; settings: Homo sapiens
Description: SANGER: Inhibition of human COLO-679 cell growth in a cell viability assay.

[37] = system: BEN; assay: cells; assay type: functional, cell-based; settings: Homo sapiens;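 note: growth inhibition of the BEN cell line, read out with a cell viability assay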
Description: SANGER: Inhibition of human BEN cell growth in a cell viability assay.

[38] = system: NCI-H596; assay: cells; assay type: functional, cell-based; settings: Homo sapiens;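 note: growth inhibition of NCI-H596 cells, read out with a cell viability assay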
Description: SANGER: Inhibition of human NCI-H596 cell growth in a cell viability assay.

[39] = system: NCI-H1694; assay: cells; assay type: functional, cell-based, Homo sapiens; settings: Homo sapiens, NCI-H1694;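 note: cell viability assay measuring inhibition of growth in human NCI-H1694 cells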
Description: SANGER: Inhibition of human NCI-H1694 cell growth in a cell viability assay.

[40] = system: D-542MG; assay: cells; assay type: functional, cell-based; settings: Homo sapiens
Description: SANGER: Inhibition of human D-542MG cell growth in a cell viability assay.

[41] = system: OVCAR-3; assay: cells; assay type: functional, cell-based; settings: Homo sapiens;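 note: growth inhibition of human OVCAR-3 cells, determined by a cell viability assay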
Description: SANGER: Inhibition of human OVCAR-3 cell growth in a cell viability assay.

[42] = system: NCI-H2347; assay: cells; assay type: functional, cell-based; settings: Homo sapiens;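 note: growth inhibition of the cell line, read out with a cell viability assay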
Description: SANGER: Inhibition of human NCI-H2347 cell growth in a cell viability assay.

[43] = system: SK-OV-3; assay: cells; assay type: functional, cell-based; settings: Homo sapiens;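 note: growth inhibition of SK-OV-3 human cells, read out with a cell viability assay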
Description: SANGER: Inhibition of human SK-OV-3 cell growth in a cell viability assay.

[44] = system: NCI-H510A; assay: cells; assay type: functional, cell-based, Homo sapiens; settings: Homo sapiens, NCI-H510A;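 note: growth inhibition of NCI-H510A cells, read out with a cell viability assay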
Description: SANGER: Inhibition of human NCI-H510A cell growth in a cell viability assay.

[45] = system: RPMI-6666; assay: cells; assay type: functional, cell-based, Homo sapiens; settings: Homo sapiens, RPMI-6666
Description: SANGER: Inhibition of human RPMI-6666 cell growth in a cell viability assay.

[46] = system: OE19; assay: cells; assay type: functional, cell-based; settings: Homo sapiens;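 note: growth inhibition of OE19 cells, measured through a cell viability read-out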
Description: SANGER: Inhibition of human OE19 cell growth in a cell viability assay.

[47] = system: C32; assay: cells; assay type: functional, cell-based; settings: Homo sapiens;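 note: cell viability assay, with IC50 reflecting inhibition of C32 cell growth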
Description: SANGER: Inhibition of human C32 cell growth in a cell viability assay.

[48] = system: MRK-nu-1; assay: cells; assay type: functional, cell-based, Homo sapiens; settings: Homo sapiens, MRK-nu-1;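 note: cell viability assay measuring growth suppression of human MRK-nu-1 cells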
Description: SANGER: Inhibition of human MRK-nu-1 cell growth in a cell viability assay.

[49] = system: GMS-10; assay: cells; assay type: functional, cell-based; settings: Homo sapiens;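 note: growth inhibition of GMS-10 cells, read out as cell viability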
Description: SANGER: Inhibition of human GMS-10 cell growth in a cell viability assay.

[50] = system: RT-112; assay: cells; assay type: functional, cell-based; settings: Homo sapiens
Description: SANGER: Inhibition of human RT-112 cell growth in a cell viability assay.

[51] = system: GP5d; assay: cells; assay type: functional, cell-based; settings: Homo sapiens;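 note: growth inhibition of human GP5d cells, read out with a cell viability assay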
Description: SANGER: Inhibition of human GP5d cell growth in a cell viability assay.

[52] = system: UO-31; assay: cells; assay type: functional, cell-based; settings: Homo sapiens
Description: SANGER: Inhibition of human U031 cell growth in a cell viability assay.

[53] = system: MC-CAR; assay: cells; assay type: functional, cell-based, Homo sapiens; settings: Homo sapiens, MC-CAR;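 note: growth inhibition of the human MC-CAR cell line, read out by a cell viability assay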
Description: SANGER: Inhibition of human MC-CAR cell growth in a cell viability assay.

[54] = system: RCM-1; assay: cells; assay type: functional, cell-based; settings: Homo sapiens;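 note: growth inhibition of the RCM-1 line, determined with a cell viability readout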
Description: SANGER: Inhibition of human RCM-1 cell growth in a cell viability assay.

[55] = system: IST-SL2; assay: cells; assay type: functional, cell-based, Homo sapiens; settings: Homo sapiens, IST-SL2;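 note: growth inhibition of human IST-SL2 cells, read out by a cell viability assay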
Description: SANGER: Inhibition of human IST-SL2 cell growth in a cell viability assay.

With `CCCCCCCCCCCC1=C(O)C(=O)C=C(O)C1=O` [EMBELIN] the IC50 [1] was greater than 32000 nM, the IC50 [2] was 25200 nM and the IC50 [3] was 19200 nM. The IC50 [4] was greater than 32000 nM, the IC50 [5] was 15700 nM and the IC50 [6] was 5380 nM. It also gave an IC50 [7] of 6370 nM, an IC50 [8] greater than 32000 nM and an IC50 [9] of 2320 nM. The IC50 [10] was greater than 32000 nM, the IC50 [11] was 13200 nM and the IC50 [12] was 5830 nM. It also gave an IC50 [13] greater than 32000 nM, an IC50 [14] greater than 32000 nM and an IC50 [15] of 14100 nM. The IC50 [16] was 5370 nM, the IC50 [17] was 6380 nM and the IC50 [18] was greater than 32000 nM. It also gave an IC50 [19] of 6880 nM, an IC50 [20] of 7420 nM and an IC50 [21] of 28200 nM. The IC50 [22] was greater than 32000 nM, the IC50 [23] was 17400 nM and the IC50 [24] was 4700 nM. The IC50 [25] was 6010 nM, the IC50 [26] was 5010 nM and the IC50 [27] was 8880 nM. The IC50 [28] was 8760 nM, the IC50 [29] was greater than 32000 nM and the IC50 [30] was 4480 nM. It also gave an IC50 [31] of 2320 nM, an IC50 [32] of 4510 nM and an IC50 [33] of 20000 nM. It also gave an IC50 [34] of 9250 nM, an IC50 [35] of 16500 nM and an IC50 [36] of 4200 nM. It also gave an IC50 [37] greater than 32000 nM, an IC50 [38] of 15400 nM and an IC50 [39] greater than 32000 nM. The IC50 [40] was 3130 nM, the IC50 [41] was 23600 nM and the IC50 [42] was 7480 nM. It also gave an IC50 [43] of 10900 nM, an IC50 [44] greater than 32000 nM and an IC50 [45] of 8670 nM. For the same compound, the IC50 [46] was 29700 nM, the IC50 [47] was 2830 nM and the IC50 [48] was 12900 nM. For the same compound, the IC50 [49] was 23000 nM, the IC50 [50] was 12600 nM and the IC50 [51] was 8600 nM. For the same compound, the IC50 [52] was 19100 nM, the IC50 [53] was 4580 nM and the IC50 [54] was 22400 nM. For the same compound, the IC50 [55] was greater than 32000 nM.

`C/C(=C\c1csc(C)n1)[C@@H]1C[C@@H]2O[C@]2(C)CCC[C@H](C)[C@H](O)[C@@H](C)C(=O)C(C)(C)[C@@H](O)CC(=O)O1` [PATUPILONE] gave an IC50 [1] greater than 32 nM, an IC50 [2] of 7.76 nM and an IC50 [3] of 1.73 nM. For the same compound, the IC50 [4] was greater than 32 nM, the IC50 [5] was greater than 32 nM and the IC50 [6] was 0.863 nM. It also gave an IC50 [7] of 19.1 nM, an IC50 [8] of 14.6 nM and an IC50 [9] of 0.174 nM. It also gave an IC50 [10] greater than 32 nM, an IC50 [11] of 2.95 nM and an IC50 [12] of 2.16 nM. It also gave an IC50 [13] of 28.9 nM, an IC50 [14] greater than 32 nM and an IC50 [15] of less than 0.125 nM. For the same compound, the IC50 [16] was 1.66 nM, the IC50 [17] was 1.02 nM and the IC50 [18] was 14.6 nM. It also gave an IC50 [19] greater than 32 nM, an IC50 [20] of 2.72 nM and an IC50 [21] of 3.65 nM. It also gave an IC50 [22] of 9.27 nM, an IC50 [23] of 0.877 nM and an IC50 [24] of 0.979 nM. The IC50 [25] was 2.53 nM, the IC50 [26] was 1.24 nM and the IC50 [27] was 1.24 nM. The IC50 [28] was 0.721 nM, the IC50 [29] was 0.132 nM and the IC50 [30] was 0.411 nM. The IC50 [31] was 0.601 nM, the IC50 [32] was 11.7 nM and the IC50 [33] was 1.52 nM. For the same compound, the IC50 [34] was 0.717 nM, the IC50 [35] was 1.91 nM and the IC50 [36] was 0.394 nM. It also gave an IC50 [37] of 20.6 nM, an IC50 [38] of 11.6 nM and an IC50 [39] greater than 32 nM. It also gave an IC50 [40] greater than 32 nM, an IC50 [41] of 4.13 nM and an IC50 [42] greater than 32 nM. It also gave an IC50 [43] of 1.5 nM, an IC50 [44] of 11.9 nM and an IC50 [45] of 1.5 nM. The IC50 [46] was 4.66 nM, the IC50 [47] was greater than 32 nM and the IC50 [48] was 0.9 nM. For the same compound, the IC50 [49] was greater than 32 nM, the IC50 [50] was 0.614 nM and the IC50 [51] was 3.09 nM. For the same compound, the IC50 [52] was 3.12 nM, the IC50 [53] was 9.73 nM and the IC50 [54] was 15.2 nM. For the same compound, the IC50 [55] was 7.03 nM.
